Data: ChEMBL document CHEMBL5233269, “Anticancer potential of spirocompounds in medicinal chemistry: A pentennial expedition” (Eur J Med Chem, 2021)
pIC50: −log10 of the molar value.

Legend:
K562 = assay: Anticancer activity against human K562 cells; assay type: functional, cell-based
[1] = target: T1, Amine oxidase [flavin-containing] A (Rattus norvegicus, UniProt P21396); assay: Inhibition of rat brain MAO-A relative to control; assay type: tissue-based
T1 sequence (P21396 whole entry): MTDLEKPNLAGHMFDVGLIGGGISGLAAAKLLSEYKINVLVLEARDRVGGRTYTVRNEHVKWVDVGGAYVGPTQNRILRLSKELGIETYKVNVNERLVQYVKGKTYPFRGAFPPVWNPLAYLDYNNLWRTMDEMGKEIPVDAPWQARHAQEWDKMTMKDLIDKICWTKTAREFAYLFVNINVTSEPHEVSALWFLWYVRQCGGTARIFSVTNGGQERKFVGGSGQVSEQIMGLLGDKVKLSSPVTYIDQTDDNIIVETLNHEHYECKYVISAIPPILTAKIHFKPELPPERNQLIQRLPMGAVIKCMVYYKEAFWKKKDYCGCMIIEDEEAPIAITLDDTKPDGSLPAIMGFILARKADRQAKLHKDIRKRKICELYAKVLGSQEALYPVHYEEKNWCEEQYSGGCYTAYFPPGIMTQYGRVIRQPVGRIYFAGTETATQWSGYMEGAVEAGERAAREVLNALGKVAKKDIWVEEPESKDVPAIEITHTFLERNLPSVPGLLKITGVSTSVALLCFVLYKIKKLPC

MCF7 [2] = assay: Anticancer activity against human MCF7 cells assessed as inhibition of cell viability; assay type: functional, cell-based
HepG2 [3] = assay: Anticancer activity against human HepG2 cells; assay type: functional, cell-based
MCF7 [4] = assay: Anticancer activity against human MCF7 cells; assay type: functional, cell-based
DU-145 = assay: Anticancer activity against human DU-145 cells; assay type: functional, cell-based
HeLa = assay: Anticancer activity against human HeLa cells; assay type: functional, cell-based
A549 [5] = assay: Anticancer activity against human A549 cells assessed as inhibition of cell proliferation; assay type: functional, cell-based
MDA-MB-435 = assay: Growth inhibition of human MDA-MB-435 cells by SRB assay; assay type: functional
MCF7 [6] = assay: Growth inhibition of human MCF7 cells by SRB assay; assay type: functional
HepG2 [7] = assay: Cytotoxicity against human HepG2 cells incubated for 48 hrs by SRB assay relative to control; assay type: functional; design: concentration or dose not given beside the values
[8] = Cytotoxicity against human HBF4 cells incubated for 48 hrs by SRB assay relative to control; assay type: toxicity, cell-based; design: concentration or dose not given beside the values; details: hbf4, 48 h
MCF7 [9] = assay: Cytotoxicity against human MCF7 cells incubated for 48 hrs by SRB assay relative to control; assay type: functional; design: concentration or dose not given beside the values
A549 [10] = assay: Cytotoxicity against human A549 cells; assay type: functional, cell-based
HCT-116 [11] = assay: Cytotoxicity against human HCT-116 cells; assay type: functional, cell-based
SW-620 = assay: Cytotoxicity against human SW620 cells; assay type: functional, cell-based
PC-3 [12] = assay: Cytotoxicity against human PC-3 cells; assay type: functional, cell-based
A549 [13] = assay: Anticancer activity against human A549 cells assessed as reduction in cell viability incubated for 48 hrs by MTT assay; assay type: functional, cell-based; details: A549, 48 h
MCF7 [14] = assay: Anticancer activity against human MCF7 cells assessed as reduction in cell viability incubated for 48 hrs by MTT assay; assay type: functional, cell-based; details: MCF7, 48 h
B16-F10 = assay: Anticancer activity against mouse B16-F10 cells incubated for 48 hrs by MTT assay; assay type: functional, cell-based; details: B16-F10, 48 h
L02 = assay: Antiproliferative activity against human L02 cells by MTT assay; assay type: functional, cell-based
HepG2 [15] = assay: Anticancer activity against human HepG2 cells assessed as inhibition of cell viability; assay type: functional, cell-based
HCT-116 [16] = assay: Anticancer activity against human HCT-116 cells assessed as inhibition of cell growth; assay type: functional, cell-based
PC-3 [17] = assay: Anticancer activity against human PC-3 cells assessed as inhibition of cell growth; assay type: functional, cell-based

Compound: CCN1C(=O)[C@@]2(c3cccc(C)c31)[C@H](O)c1ccccc1[C@@H]2[C@]1(CN2CCCC2)C(=O)N(CC)c2c(C)cccc21
- pIC50 (K562): 4.67

Compound: CCn1c(=S)[nH]c2c(c1=O)C1(CCCCC1)Cc1ccccc1-2
- inhibition (INH) [1]: 58%

Compound: CCCN(CCC)C(=O)CSc1nc2c(c(=O)n1CC)C1(CCCCC1)Cc1ccccc1-2
- inhibition (INH) [1]: 86%

Compound: N#CC1=C(N)NC2=C(CCCC2)C12C(=O)Nc1ccc(I)cc12 (configuration not stated)
- pIC50 (MCF7 [2]): 4.55
- pIC50 (HepG2 [3]): 4.59

Compound: O=C1OCC2Nc3ccccc3NC3(C(=O)N(Cc4ccccc4)c4ccccc43)C12 (configuration not stated)
- pIC50 (MCF7 [4]): 5.65
- pIC50 (DU-145): 5.94
- pIC50 (HeLa): 5.64
- pIC50 (A549 [5]): 5.87

Compound: N#CC1=C(N)NC2=C(CCCCC2)C12C(=O)Nc1ccccc12 (configuration not stated)
- pIC50 (MCF7 [2]): 4.74
- pIC50 (HepG2 [3]): 4.70

Compound: N#CC1=C(N)OC2=C(C(=O)c3ccccc32)C12C(=O)Nc1ccc(F)cc12 (configuration not stated)
- GI50 (MDA-MB-435): > 100 µM
- GI50 (MCF7 [6]): 90.9 µM

Compound: CCOC(=O)C1=C(N)N(c2ccccc2)C2=C(C(=O)CC(C)(C)C2)C12C(=O)Nc1ccccc12 (configuration not stated)
- Activity (HepG2 [7]): 37%
- Activity [8]: 24%
- Activity (MCF7 [9]): 78%

Compound: CCC(=O)N1CC2C(=O)Oc3ccccc3C2C12C(=O)Nc1cc(Cl)ccc12 (configuration not stated)
- pIC50 (A549 [10]): < 4.30
- pIC50 (HCT-116 [11]): < 4.30
- pIC50 (SW-620): > 7.10
- pIC50 (PC-3 [12]): < 4.30

Compound: COC1=CC2(C=C(C(=O)Oc3c(F)cc(F)cc3F)c3cc(OC)cc(OC)c32)C(OC)=CC1=O (configuration not stated)
- pIC50 (A549 [13]): 4.98
- pIC50 (MCF7 [14]): 4.91
- pIC50 (B16-F10): 5.02

Compound: N#CC1=C(N)OC2=C(C(=O)c3ccccc32)C12C(=O)Nc1ccc(Br)cc12 (configuration not stated)
- GI50 (MDA-MB-435): 1.8 µM
- GI50 (MCF7 [6]): > 100 µM

Compound: CN1C(=O)[C@@]2(c3cccc(Cl)c31)[C@H](O)c1ccccc1[C@@H]2[C@]1(CN2CCCC2)C(=O)N(C)c2c(Cl)cccc21
- pIC50 (K562): 4.68

Compound: COC1=CC2(C=C(C(=O)NNc3ccc(OC(F)(F)F)cc3)c3cc(OC)cc(OC)c32)C(OC)=CC1=O (configuration not stated)
- pIC50 (A549 [13]): 4.75
- pIC50 (MCF7 [14]): 4.82
- pIC50 (B16-F10): 4.71

Compound: N#CC1=C(N)OC2=C(C(=O)c3ccccc32)C12C(=O)Nc1ccc(I)cc12 (configuration not stated)
- GI50 (MDA-MB-435): > 100 µM
- GI50 (MCF7 [6]): 62 µM

Compound: Cc1coc2c1C(=O)C(=O)c1c-2ccc2c1CCCC2(C)C [TANSHINONE IIA]
- pIC50 (L02): 4.19

Compound: O=C1OCC2Nc3ccccc3NC3(C(=O)N(Cc4ccccc4)c4ccc(Cl)cc43)C12 (configuration not stated)
- pIC50 (MCF7 [4]): 5.03
- pIC50 (DU-145): 5.66
- pIC50 (HeLa): 4.80
- pIC50 (A549 [5]): 5.41

Compound: CCn1c(SC)nc2c(c1=O)C1(CCCCC1)Cc1ccccc1-2
- inhibition (INH) [1]: 66%

Compound: Cc1ccc(-c2nc(SC3O[C@H](CO)[C@@H](O)[C@H](O)[C@H]3O)nc3c2SC2(CCCCC2)N3c2ccc(F)cc2)o1 (some centres not stated)
- pIC50 (HepG2 [15]): 6.55
- pIC50 (HCT-116 [16]): 7.02
- pIC50 (PC-3 [17]): 6.55

Compound: O=C1OCC2Nc3ccccc3NC3(C(=O)N(Cc4ccccc4)c4ccc(Br)cc43)C12 (configuration not stated)
- pIC50 (MCF7 [4]): 5.63
- pIC50 (DU-145): 5.50
- pIC50 (HeLa): 4.92
- pIC50 (A549 [5]): 5.42

Compound: N#CC1=C(N)OC2=C(C(=O)C=C2)C12C(=O)Nc1ccc(Cl)cc12 (configuration not stated)
- GI50 (MDA-MB-435): 29.9 µM
- GI50 (MCF7 [6]): 53 µM

Compound: CCC(=O)N1CC2C(=O)Oc3ccccc3C2C12C(=O)Nc1ccccc12 (configuration not stated)
- pIC50 (A549 [10]): 4.96
- pIC50 (HCT-116 [11]): 4.99
- pIC50 (SW-620): 5.37
- pIC50 (PC-3 [12]): 4.33

Compound: CCOC(=O)C1=C2N=C(N)C3=C(SC4CCCCC34)N2C2=C(C(=O)CC(C)(C)C2)C12C(=O)Nc1ccccc12 (configuration not stated)
- Activity (HepG2 [7]): 25%
- Activity [8]: 17%
- Activity (MCF7 [9]): 80%

Compound: O=C1Oc2cc(Cl)ccc2C2C1CN(C(=O)N1CCCCC1)C21C(=O)Nc2ccccc21 (configuration not stated)
- pIC50 (A549 [10]): 5.15
- pIC50 (HCT-116 [11]): 4.80
- pIC50 (SW-620): 6.31
- pIC50 (PC-3 [12]): < 4.30
